Test results published in the supplement of paper PMC11061612.

Columns and labels:
Assay in all cases: Bliss excess, mean over the matrix (fraction); higher = more synergy
[1] = system: PF-382 (T-Lymphoblastic Leukemia)
Summary of the method: (§1)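 Cell lines grown in DMEM/F12 or RPMI with 10% FBS were plated in 1536-well plates and held 24 hours at 37°C, 5% CO2 before 72 hours of exposure to two-drug dose matrices, with DMSO typically at 0.2%. CellTiter-Glo 2.0 luminescence gave viability, which was converted to inhibition. Vehicle wells were set to 0 and blank wells to 1. Combination Emax is the second-highest inhibition in the matrix, and Bliss excess is the observed combination effect minus the expected EA + EB − EA·EB, where EA and EB are the single-agent effects.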

[2] = system: H-EMC-SS (Chondrosarcoma)
Summary of the method: as §1

[3] = system: OCUM-1 (Gastric Carcinoma)
Summary of the method: as §1

[4] = system: VMRC-LCD (Lung Adenocarcinoma)
Summary of the method: as §1

[5] = system: LOU-NH91 (Squamous Cell Lung Carcinoma)
Summary of the method: as §1

[6] = system: EBC-1 (Squamous Cell Lung Carcinoma)
Summary of the method: as §1

[7] = system: BV-173 (Chronic Myelogenous Leukemia)
Summary of the method: as §1

[8] = system: KU-19-19 (Bladder Carcinoma)
Summary of the method: as §1

[9] = system: MFE-319 (Endometrial Carcinoma)
Summary of the method: as §1

[10] = system: EW-3 (Ewing's Sarcoma)
Summary of the method: as §1

[11] = system: KYSE-50 (Esophageal Squamous Cell Carcinoma)
Summary of the method: as §1

[12] = system: KINGS-1 (Low Grade Glioma)
Summary of the method: as §1

[13] = system: KP-2 (Pancreatic Carcinoma)
Summary of the method: as §1

[14] = system: JHH-7 (Hepatocellular Carcinoma)
Summary of the method: as §1

[15] = system: GOTO (Neuroblastoma)
Summary of the method: as §1

[16] = system: NCI-H1573 (Lung Adenocarcinoma)
Summary of the method: as §1

[17] = system: HC-1 (Other Blood Carcinomas)
Summary of the method: as §1

[18] = system: KLE (Endometrial Carcinoma)
Summary of the method: as §1

[19] = system: OVISE (Ovarian Carcinoma)
Summary of the method: as §1

[20] = system: SCC-3 (B-Cell Non-Hodgkin's Lymphoma)
Summary of the method: as §1

Structure (SMILES) | Bliss excess [1] | Bliss excess [2] | Bliss excess [3] | Bliss excess [4] | Bliss excess [5] | Bliss excess [6] | Bliss excess [7] | Bliss excess [8] | Bliss excess [9] | Bliss excess [10] | Bliss excess [11] | Bliss excess [12] | Bliss excess [13] | Bliss excess [14] | Bliss excess [15] | Bliss excess [16] | Bliss excess [17] | Bliss excess [18] | Bliss excess [19] | Bliss excess [20]
COc1nnc2ccc(N3CCC(c4ccc(OCCN5CCN(C)C(=O)[C@H]5C)cc4)CC3)nn12 [AZD5153] + CC1(C)CCC(CN2CCN(c3ccc(C(=O)NS(=O)(=O)c4ccc(NCC5CCOCC5)c([N+](=O)[O-])c4)c(Oc4cnc5[nH]ccc5c4)c3)CC2)=C(c2ccc(Cl)cc2)C1 [Venetoclax] (first compound max 1 µM, 7x7, partner max 1 µM) | -0.0551 | -0.0508 | -0.0456 | -0.063 | -0.0758 | -0.0413 | -0.0706 | -0.0567 | -0.124 | -0.0801 | -0.0591 | -0.0288 | -0.0381 | -0.0676 | -0.065 | -0.0885 | 0.0089 | -0.0384 | -0.013 | -0.0213
CN(CCO)CC[C@H](CSc1ccccc1)Nc1ccc(S(=O)(=O)NC(=O)c2ccc(N3CCC([C@@H](O)c4ccccc4-c4ccc(Cl)cc4)CC3)cc2)cc1S(=O)(=O)C(F)(F)F [AZD4320] + CN(C)CCCOc1ccc(-c2ccc3ncc4c(c3c2)n(C2CCOCC2)c(=O)n4C)cn1 [AZD0156] (first compound max 1 µM, 7x7, partner max 1 µM) | -0.002 | -0.0374 | -0.055 | -0.0542 | 0.0054 | -0.0075 | -0.0681 | -0.0364 | -0.0009 | 0.0012 | -0.0341 | 0.007 | -0.0444 | -0.0408 | -0.0041 | -0.0255 | -0.0813 | -0.0824 | -0.0521 | 0.0226
CCc1c2c(nc3ccc(O)cc13)-c1cc3c(c(=O)n1C2)COC(=O)[C@]3(O)CC [SN-38] + CN(C)CCCOc1ccc(-c2ccc3ncc4c(c3c2)n(C2CCOCC2)c(=O)n4C)cn1 [AZD0156] (first compound max 0.3 µM, 7x7, partner max 1 µM) | 0.0739 | -0.0092 | -0.0395 | -0.0338 | 0.011 | -0.0488 | -0.0256 | 0.0033 | -0.0108 | -0.0679 | -0.0053 | -0.0185 | 0.0154 | 0.0084 | -0.0221 | -0.0359 | -0.0261 | -0.0034 | -0.0355 | 0.0372
Cc1cc2ncnn2cc1Nc1ncc2c(n1)n(C1CCOCC1)c(=O)n2C [AZD7648] + CN(C)CCCOc1ccc(-c2ccc3ncc4c(c3c2)n(C2CCOCC2)c(=O)n4C)cn1 [AZD0156] (first compound max 10 µM, 7x7, partner max 1 µM) | 0.0685 | -0.0396 | 0.0016 | 0.0122 | 0.0454 | 0.0204 | 0.0151 | 0.0009 | 0.0572 | -0.0281 | 0.0078 | 0.0089 | -0.0182 | -0.0152 | -0.0264 | -0.0085 | -0.0398 | 0.0175 | 0.0265 | 0.0458
CN(CCO)CC[C@H](CSc1ccccc1)Nc1ccc(S(=O)(=O)NC(=O)c2ccc(N3CCC([C@@H](O)c4ccccc4-c4ccc(Cl)cc4)CC3)cc2)cc1S(=O)(=O)C(F)(F)F [AZD4320] + Cc1cc2ncnn2cc1Nc1ncc2c(n1)n(C1CCOCC1)c(=O)n2C [AZD7648] (first compound max 1 µM, 7x7, partner max 10 µM) | 0.0269 | -0.0218 | -0.0462 | -0.0595 | -0.012 | -0.0396 | -0.0643 | -0.0359 | -0.0557 | 0.015 | -0.0198 | -0.0152 | -0.0338 | -0.0253 | 0.075 | -0.0358 | 0.0352 | -0.0116 | -0.0033 | -0.0018
Cn1cnc2c(F)c(Nc3ccc(Br)cc3Cl)c(C(=O)NOCCO)cc21 [Selumetinib] + C[C@@H]1COCCN1C2=NC(=NC(=C2)C3(CC3)[S@](=N)(=O)C)C4=C5C=CNC5=NC=C4 [AZD6738] (first compound max 10 µM, 7x7, partner max 10 µM) | -0.0047 | -0.0405 | -0.0359 | -0.0546 | 0.0302 | -0.0062 | -0.0149 | -0.0147 | 0.0065 | -0.0489 | 0.0013 | 0.0148 | 0.121 | -0.0073 | 0.0043 | 0.0488 | -0.0743 | 0.01 | -0.0405 | 0.0368
CN(C)CCCOc1ccc(-c2ccc3ncc4c(c3c2)n(C2CCOCC2)c(=O)n4C)cn1 [AZD0156] + C=CCn1c(=O)c2cnc(Nc3ccc(N4CCN(C)CC4)cc3)nc2n1-c1cccc(C(C)(C)O)n1 [AZD1775] (first compound max 1 µM, partner max 1 µM) | -0.0121 | -0.0535 | 0.0183 | -0.0399 | -0.0349 | -0.0603 | 0.0116 | -0.0043 | -0.0706 | 0.002 | -0.0116 | -0.0779 | -0.0331 | -0.0412 | 0.0051 | -0.0537 | -0.0238 | 0.0559 | -0.0374 | -0.0162
CC1(C)CCC(CN2CCN(c3ccc(C(=O)NS(=O)(=O)c4ccc(NCC5CCOCC5)c([N+](=O)[O-])c4)c(Oc4cnc5[nH]ccc5c4)c3)CC2)=C(c2ccc(Cl)cc2)C1 [Venetoclax] + CN(C)CCCOc1ccc(-c2ccc3ncc4c(c3c2)n(C2CCOCC2)c(=O)n4C)cn1 [AZD0156] (first compound max 1 µM, 7x7, partner max 1 µM) | 0.0446 | -0.0387 | -0.0257 | -0.0333 | -0.0307 | 0.0095 | -0.0598 | -0.0167 | 0.0513 | 0.032 | -0.0399 | -0.0746 | -0.0193 | -0.032 | -0.0194 | -0.0249 | -0.0244 | -0.145 | -0.01 | 0.0194
CN(CCO)CC[C@H](CSc1ccccc1)Nc1ccc(S(=O)(=O)NC(=O)c2ccc(N3CCC([C@@H](O)c4ccccc4-c4ccc(Cl)cc4)CC3)cc2)cc1S(=O)(=O)C(F)(F)F [AZD4320] + C=CCn1c(=O)c2cnc(Nc3ccc(N4CCN(C)CC4)cc3)nc2n1-c1cccc(C(C)(C)O)n1 [AZD1775] (first compound max 1 µM, partner max 1 µM) | -0.0132 | -0.0004 | 0.03 | -0.0459 | 0.105 | 0.0187 | -0.0038 | -0.018 | 0.0537 | 0.11 | -0.0682 | 0.0509 | 0.0889 | 0.0362 | -0.0268 | -0.0052 | 0.206 | 0.0083 | 0.0598 | 0.0329
CC1(C)CCC(CN2CCN(c3ccc(C(=O)NS(=O)(=O)c4ccc(NCC5CCOCC5)c([N+](=O)[O-])c4)c(Oc4cnc5[nH]ccc5c4)c3)CC2)=C(c2ccc(Cl)cc2)C1 [Venetoclax] + CCN(CCO)CCCOc1ccc2c(Nc3cc(CC(=O)Nc4cccc(F)c4)[nH]n3)ncnc2c1 [AZD2811] (first compound max 1 µM, 7x7, partner max 1 µM) | 0.0279 | -0.0468 | 0.0236 | -0.0227 | -0.0477 | 0.0178 | -0.0739 | -0.059 | 0.0015 | 0.0634 | 0.0025 | -0.0652 | -0.0247 | 0.0033 | 0.0162 | -0.0246 | 0.177 | -0.0629 | 0.0134 | 0.0418
Cc1c2c(nn1C)CSCc1cc(n(C)n1)CSc1cc(c3ccccc3c1)OCCCc1c(C(=O)O)n(C)c3c-2c(Cl)ccc13 [AZD5991] + C=CCn1c(=O)c2cnc(Nc3ccc(N4CCN(C)CC4)cc3)nc2n1-c1cccc(C(C)(C)O)n1 [AZD1775] (first compound max 1 µM, partner max 1 µM) | -0.0314 | 0.0071 | -0.0148 | -0.0174 | 0.0376 | 0.0007 | -0.072 | -0.0518 | 0.0074 | 0.017 | -0.0042 | -0.0037 | 0.0069 | 0.0348 | -0.0513 | -0.0248 | 0.0432 | -0.0616 | 0.0108 | 0.0088
COc1cccc(OCCCN)c1-c1cc(Nc2cnc(C#N)cn2)n[nH]1 [Prexasertib] + O=C(c1cc(Cc2n[nH]c(=O)c3ccccc23)ccc1F)N1CCN(C(=O)C2CC2)CC1 [Olaparib] (first compound max 1 µM, 7x7, partner max 10 µM) | -0.017 | -0.0445 | -0.0645 | -0.0955 | 0.0427 | -0.0052 | 0.0169 | 0.0061 | -0.0891 | -0.0378 | -0.117 | -0.0979 | -0.0682 | -0.0795 | -0.101 | 0.0418 | 0.0035 | 0.0514 | -0.0578 | -0.0133
